From PMC6416464 (Drug Metabolism Letters, 2018)
pIC50: −log10 of the molar value.

Assays:
[1] = Metabolic stability, incubation with human liver cytosol; assay type: in vitro ADME; conditions: 1 µM test compound, 1 mg/mL protein
CYP3A4 [2] = target: T1, CYP3A4 (Homo sapiens, UniProt P08684); assay: in vitro; conditions: microsomes, pH 7.4, % Inhibition of Control Activity CYP3A4 (substrate, testosterone)
CYP3A4 [3] = target: T1, CYP3A4; assay: in vitro; conditions: microsomes, pH 7.4
[4] = Metabolic stability, incubation with human liver microsomes; conditions: 1 µM test compound, 0.5 mg/mL protein
CYP2C8 = target: T2, CYP2C8 (Homo sapiens, UniProt P10632); assay: CYP inhibition in human liver microsomes, CYP2C8; conditions: human, human liver microsomes, pH 7.4, probe paclitaxel
T2 sequence (P10632 1-490): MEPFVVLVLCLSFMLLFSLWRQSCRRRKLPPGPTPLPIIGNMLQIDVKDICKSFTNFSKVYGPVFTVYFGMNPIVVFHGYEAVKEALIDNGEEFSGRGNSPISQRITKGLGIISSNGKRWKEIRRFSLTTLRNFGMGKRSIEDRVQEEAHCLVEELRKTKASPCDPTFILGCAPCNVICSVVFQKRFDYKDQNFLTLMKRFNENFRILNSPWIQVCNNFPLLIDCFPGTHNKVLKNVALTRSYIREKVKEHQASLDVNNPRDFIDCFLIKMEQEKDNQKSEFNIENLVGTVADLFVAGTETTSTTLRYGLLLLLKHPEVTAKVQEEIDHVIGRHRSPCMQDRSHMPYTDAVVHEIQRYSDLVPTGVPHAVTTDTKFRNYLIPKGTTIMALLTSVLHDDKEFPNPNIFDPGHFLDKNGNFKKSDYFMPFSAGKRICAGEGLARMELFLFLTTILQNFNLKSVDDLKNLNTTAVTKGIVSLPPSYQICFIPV

rCYP3A4 = rCYP3A4 (Homo sapiens, UniProt P08684); conditions: for % Metabolized at 30 min Incubation with Human Liver Fractions/Enzymes rCYP3A4: 1 µM test compound, 100 pmol/mL; for Predicted Microsomal Clint, CYP3A4 / % Contribution of CYP Enzymes (fmCYP) in Metabolism, CYP3A4 / rCYP Clint, CYP3A4: human, pH 7.4; for % Contribution of CYP Enzymes (fmCYP) in Metabolism, CYP3A4 / rCYP Clint, CYP3A4: recombinant enzyme
rCYP3A4, sequence (P08684 whole entry): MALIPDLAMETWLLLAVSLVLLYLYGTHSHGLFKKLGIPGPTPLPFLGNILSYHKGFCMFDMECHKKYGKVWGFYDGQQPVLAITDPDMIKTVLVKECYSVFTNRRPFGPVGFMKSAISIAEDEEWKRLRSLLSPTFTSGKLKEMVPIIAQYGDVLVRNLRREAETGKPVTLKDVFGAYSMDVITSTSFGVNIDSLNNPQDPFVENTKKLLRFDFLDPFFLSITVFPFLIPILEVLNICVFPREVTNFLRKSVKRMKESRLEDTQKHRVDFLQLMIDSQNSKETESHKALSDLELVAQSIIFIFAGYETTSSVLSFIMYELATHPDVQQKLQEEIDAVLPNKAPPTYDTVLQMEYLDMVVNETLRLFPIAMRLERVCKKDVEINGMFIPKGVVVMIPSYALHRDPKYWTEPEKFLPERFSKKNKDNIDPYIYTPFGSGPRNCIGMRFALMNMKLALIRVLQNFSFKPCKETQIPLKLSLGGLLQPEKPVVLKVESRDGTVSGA

rCYP1A2 = target: T3, rCYP1A2 (Homo sapiens, UniProt P05177); assay: Metabolic stability / reaction phenotyping with recombinant human CYP1A2; conditions: for % Metabolized at 30 min Incubation with Human Liver Fractions/Enzymes rCYP1A2: 1 µM test compound, 100 pmol/mL
T3 sequence (P05177 1-516): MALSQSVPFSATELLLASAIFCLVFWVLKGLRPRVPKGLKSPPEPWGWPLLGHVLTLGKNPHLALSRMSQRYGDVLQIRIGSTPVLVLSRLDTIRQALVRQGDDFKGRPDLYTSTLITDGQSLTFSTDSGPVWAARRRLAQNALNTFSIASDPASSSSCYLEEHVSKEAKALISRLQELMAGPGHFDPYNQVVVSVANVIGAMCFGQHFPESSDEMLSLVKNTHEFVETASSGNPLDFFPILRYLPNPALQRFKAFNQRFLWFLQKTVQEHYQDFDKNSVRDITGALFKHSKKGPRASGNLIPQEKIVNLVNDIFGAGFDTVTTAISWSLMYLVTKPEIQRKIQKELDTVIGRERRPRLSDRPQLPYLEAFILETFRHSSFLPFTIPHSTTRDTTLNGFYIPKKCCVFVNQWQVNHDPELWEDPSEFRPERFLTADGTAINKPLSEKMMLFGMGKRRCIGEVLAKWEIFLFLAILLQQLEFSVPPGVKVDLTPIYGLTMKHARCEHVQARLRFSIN

rCYP2C8 = target: T4, rCYP2C8 (Homo sapiens, UniProt P10632); assay: Metabolic stability / reaction phenotyping with recombinant human CYP2C8; conditions: for % Metabolized at 30 min Incubation with Human Liver Fractions/Enzymes rCYP2C8: 1 µM test compound, 100 pmol/mL; for % Contribution of CYP Enzymes (fmCYP) in Metabolism, CYP2C8 / Predicted Microsomal Clint, CYP2C8 / rCYP Clint, CYP2C8: human, recombinant human CYP2C8, 1 µM, pH 7.4
T4 sequence (P10632 1-490): T2 sequence (P10632 1-490)

rCYP2C9 = rCYP2C9 (Homo sapiens, UniProt P11712); assay: Metabolic stability / reaction phenotyping with recombinant human CYP2C9; conditions: for % Metabolized at 30 min Incubation with Human Liver Fractions/Enzymes rCYP2C9: 1 µM test compound, 100 pmol/mL; for % Contribution of CYP Enzymes (fmCYP) in Metabolism, CYP2C9 / Predicted Microsomal Clint, CYP2C9 / rCYP Clint, CYP2C9: human, recombinant human CYP2C9, 1 µM, pH 7.4
rCYP2C9, sequence (P11712 whole entry): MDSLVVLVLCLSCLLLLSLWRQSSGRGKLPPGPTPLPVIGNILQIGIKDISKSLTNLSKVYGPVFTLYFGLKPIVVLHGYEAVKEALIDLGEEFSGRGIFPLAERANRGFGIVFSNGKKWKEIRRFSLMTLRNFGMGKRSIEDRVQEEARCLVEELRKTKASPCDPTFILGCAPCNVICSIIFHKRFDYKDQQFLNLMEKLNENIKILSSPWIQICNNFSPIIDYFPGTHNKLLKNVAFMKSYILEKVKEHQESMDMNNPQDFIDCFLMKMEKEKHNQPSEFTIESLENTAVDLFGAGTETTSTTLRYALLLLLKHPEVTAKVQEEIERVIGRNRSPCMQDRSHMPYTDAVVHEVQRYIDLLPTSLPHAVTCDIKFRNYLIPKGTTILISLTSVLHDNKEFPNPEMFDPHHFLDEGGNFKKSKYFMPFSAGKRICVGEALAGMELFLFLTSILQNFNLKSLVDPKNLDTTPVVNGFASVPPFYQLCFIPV

rCYP2D6 = rCYP2D6 (Homo sapiens, UniProt P10635); assay: Metabolic stability / reaction phenotyping with recombinant human CYP2D6; conditions: for % Metabolized at 30 min Incubation with Human Liver Fractions/Enzymes rCYP2D6: 1 µM test compound, 100 pmol/mL
rCYP2D6, sequence (P10635 whole entry): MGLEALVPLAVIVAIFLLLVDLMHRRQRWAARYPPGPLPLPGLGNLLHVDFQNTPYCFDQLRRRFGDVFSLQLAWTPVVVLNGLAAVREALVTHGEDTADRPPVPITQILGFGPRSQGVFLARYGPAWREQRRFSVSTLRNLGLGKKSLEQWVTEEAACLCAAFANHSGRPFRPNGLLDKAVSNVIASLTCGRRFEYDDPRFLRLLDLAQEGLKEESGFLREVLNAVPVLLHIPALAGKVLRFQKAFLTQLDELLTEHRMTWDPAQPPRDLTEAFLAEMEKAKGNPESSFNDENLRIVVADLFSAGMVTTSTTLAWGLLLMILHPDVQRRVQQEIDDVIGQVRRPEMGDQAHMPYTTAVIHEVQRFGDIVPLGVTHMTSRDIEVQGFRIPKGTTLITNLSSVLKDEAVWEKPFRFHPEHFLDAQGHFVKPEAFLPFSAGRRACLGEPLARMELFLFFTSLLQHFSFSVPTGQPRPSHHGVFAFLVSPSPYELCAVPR

rCYP2C19 = rCYP2C19 (Homo sapiens, UniProt P33261); assay: Metabolic stability / reaction phenotyping with recombinant human CYP2C19; conditions: for % Metabolized at 30 min Incubation with Human Liver Fractions/Enzymes rCYP2C19: 1 µM test compound, 100 pmol/mL; for % Contribution of CYP Enzymes (fmCYP) in Metabolism, CYP2C19 / Predicted Microsomal Clint, CYP2C19 / rCYP Clint, CYP2C19: human, recombinant human CYP2C19, 1 µM, pH 7.4
rCYP2C19, sequence (P33261 whole entry): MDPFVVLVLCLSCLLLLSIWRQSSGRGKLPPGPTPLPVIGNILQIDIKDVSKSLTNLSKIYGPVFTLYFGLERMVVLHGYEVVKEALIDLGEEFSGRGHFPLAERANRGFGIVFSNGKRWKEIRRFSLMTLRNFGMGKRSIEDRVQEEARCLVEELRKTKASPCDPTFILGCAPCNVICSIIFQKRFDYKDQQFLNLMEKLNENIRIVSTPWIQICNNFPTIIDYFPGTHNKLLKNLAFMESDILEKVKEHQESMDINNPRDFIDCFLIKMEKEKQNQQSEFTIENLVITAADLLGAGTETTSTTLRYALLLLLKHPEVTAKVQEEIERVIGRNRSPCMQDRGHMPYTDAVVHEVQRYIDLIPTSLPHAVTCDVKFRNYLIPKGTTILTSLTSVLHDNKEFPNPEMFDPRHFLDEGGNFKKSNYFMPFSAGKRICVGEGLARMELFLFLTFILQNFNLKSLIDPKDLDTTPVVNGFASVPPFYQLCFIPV

CYP1A2 = target: T5, CYP1A2 (Homo sapiens, UniProt P05177); assay: CYP inhibition in human liver microsomes, CYP1A2
T5 sequence (P05177 1-516): T3 sequence (P05177 1-516)

[5] = human, recombinant human CYP1A2, 1 µM, pH 7.4
[6] = human, recombinant human CYP2D6, 1 µM, pH 7.4

T1 sequence (P08684 2-503): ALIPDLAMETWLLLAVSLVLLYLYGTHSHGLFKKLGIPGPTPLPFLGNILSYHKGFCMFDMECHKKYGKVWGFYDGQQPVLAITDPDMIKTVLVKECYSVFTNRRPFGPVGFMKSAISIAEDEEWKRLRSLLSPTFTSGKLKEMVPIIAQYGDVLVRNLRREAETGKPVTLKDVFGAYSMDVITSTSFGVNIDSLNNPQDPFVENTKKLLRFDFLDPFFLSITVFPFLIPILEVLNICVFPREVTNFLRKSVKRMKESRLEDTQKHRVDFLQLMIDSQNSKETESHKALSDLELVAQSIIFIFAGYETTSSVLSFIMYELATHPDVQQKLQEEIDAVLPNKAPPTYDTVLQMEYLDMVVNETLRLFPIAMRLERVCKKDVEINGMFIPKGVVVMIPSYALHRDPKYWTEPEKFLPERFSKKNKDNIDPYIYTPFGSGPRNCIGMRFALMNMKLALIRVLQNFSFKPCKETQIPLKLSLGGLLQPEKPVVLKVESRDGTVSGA

| Structure (SMILES) | % Metabolized at 30 min Incubation with Human Liver Fractions/Enzymes Cytosol [1] [%] | inhibition at 2 µM (CYP3A4 [2]) [%] | inhibition at 10 µM (CYP3A4 [2]) [%] | inhibition at 2 µM (CYP3A4 [3]) [%] | inhibition at 10 µM (CYP3A4 [3]) [%] | % Metabolized at 30 min Incubation with Human Liver Fractions/Enzymes HLM [4] [%] | inhibition at 2 µM (CYP2C8) [%] | inhibition at 10 µM (CYP2C8) [%] | % Metabolized at 30 min Incubation with Human Liver Fractions/Enzymes rCYP3A4 (rCYP3A4) [%] | % Metabolized at 30 min Incubation with Human Liver Fractions/Enzymes rCYP1A2 (rCYP1A2) [%] | % Metabolized at 30 min Incubation with Human Liver Fractions/Enzymes rCYP2C8 (rCYP2C8) [%] | % Metabolized at 30 min Incubation with Human Liver Fractions/Enzymes rCYP2C9 (rCYP2C9) [%] | % Metabolized at 30 min Incubation with Human Liver Fractions/Enzymes rCYP2D6 (rCYP2D6) [%] | % Metabolized at 30 min Incubation with Human Liver Fractions/Enzymes rCYP2C19 (rCYP2C19) [%] | also measured |
| --- | --- | --- | --- | --- | --- | --- | --- | --- | --- | --- | --- | --- | --- | --- | --- |
| CNC(=O)O/N=C/C(C)(C)S(C)(=O)=O [Aldicarb sulfone, aldicarb sulfone] | 0.00 | 1.83 | < 0 | < 0 | < 0 | 1.05 | 2.77 | 4.1 | – | – | – | – | – | – | – |
| CNC(=O)O/N=C/C(C)(C)[S+](C)[O-] (stereo not drawn) [Aldicarb sulfoxide, aldicarb sulfoxide] | 0.00 | < 0 | < 0 | < 0 | < 0 | 21.18 | < 0 | 2.32 | 5.91 | 0.00 | 0.00 | 0.00 | 0.00 | 0.85 | Predicted Microsomal Clint, CYP3A4 (rCYP3A4): 2.254 µL/min/mg Protein; % Contribution of CYP Enzymes (fmCYP) in Metabolism, CYP3A4 (rCYP3A4): 97.66%; rCYP Clint, CYP3A4 (rCYP3A4): 0.020 µL/min/pmol; % Contribution of CYP Enzymes (fmCYP) in Metabolism, CYP2C19 (rCYP2C19): 2.34%; Predicted Microsomal Clint, CYP2C19 (rCYP2C19): 0.054 µL/min/mg Protein; rCYP Clint, CYP2C19 (rCYP2C19): 0.003 µL/min/pmol |
| CNC(=O)O/N=C/C(C)(C)SC [Aldicarb, aldicarb] | 21.08 | < 0 | < 0 | < 0 | < 0 | 13.41 | 2.63 | < 0 | 0.00 | 0.00 | 13.26 | 0.00 | 0.00 | 6.93 | % Contribution of CYP Enzymes (fmCYP) in Metabolism, CYP2C8 (rCYP2C8): 56.91%; Predicted Microsomal Clint, CYP2C8 (rCYP2C8): 3.035 µL/min/mg Protein; rCYP Clint, CYP2C8 (rCYP2C8): 0.047 µL/min/pmol; % Contribution of CYP Enzymes (fmCYP) in Metabolism, CYP2C9 (rCYP2C9): 43.09%; Predicted Microsomal Clint, CYP2C9 (rCYP2C9): 2.298 µL/min/mg Protein; rCYP Clint, CYP2C9 (rCYP2C9): 0.024 µL/min/pmol |
| CN(C)CCCOc1nn(Cc2ccccc2)c2ccccc12 [Benzydamine, reference compound] | – | – | – | – | – | 16.45 | – | – | – | – | – | – | – | – | – |
| COc1ccc2c(c1)[C@]13CCCC[C@@H]1[C@H](C2)N(C)CC3 [Dextromethorphan, dextromethorphan] | – | – | – | – | – | – | – | – | – | – | – | – | 99.81 | – | – |
| O=C(O)Cc1ccccc1Nc1c(Cl)cccc1Cl [Diclofenac, diclofenac, reference compound] | – | – | – | – | – | – | – | – | – | – | – | 98.61 | – | – | – |
| CNC(=O)Oc1cc(C)c(SC)c(C)c1 [Methiocarb, methiocarb] | 6.93 | 8.34 | 29.7 | < 0 | < 0 | 78.39 | < 0 | < 0 | 98.38 | 46.94 | 41.44 | 6.50 | 99.43 | 19.42 | Predicted Microsomal Clint, CYP3A4 (rCYP3A4): 188.076 µL/min/mg Protein; % Contribution of CYP Enzymes (fmCYP) in Metabolism, CYP3A4 (rCYP3A4): 81.34%; rCYP Clint, CYP3A4 (rCYP3A4): 1.694 µL/min/pmol; pIC50 (CYP1A2): 6.15; % Contribution of CYP Enzymes (fmCYP) in Metabolism, CYP1A2 (rCYP1A2; [5]): 4.75%; Predicted Microsomal Clint, CYP1A2 (rCYP1A2; [5]): 10.987 µL/min/mg Protein; rCYP Clint, CYP1A2 (rCYP1A2; [5]): 0.211 µL/min/pmol; % Contribution of CYP Enzymes (fmCYP) in Metabolism, CYP2C8 (rCYP2C8): 4.94%; Predicted Microsomal Clint, CYP2C8 (rCYP2C8): 11.416 µL/min/mg Protein; rCYP Clint, CYP2C8 (rCYP2C8): 0.178 µL/min/pmol; % Contribution of CYP Enzymes (fmCYP) in Metabolism, CYP2C9 (rCYP2C9): 0.93%; Predicted Microsomal Clint, CYP2C9 (rCYP2C9): 2.151 µL/min/mg Protein; rCYP Clint, CYP2C9 (rCYP2C9): 0.022 µL/min/pmol; % Contribution of CYP Enzymes (fmCYP) in Metabolism, CYP2D6 (rCYP2D6; [6]): 7.46%; Predicted Microsomal Clint, CYP2D6 (rCYP2D6; [6]): 17.239 µL/min/mg Protein; rCYP Clint, CYP2D6 (rCYP2D6; [6]): 1.724 µL/min/pmol; % Contribution of CYP Enzymes (fmCYP) in Metabolism, CYP2C19 (rCYP2C19): 0.59%; Predicted Microsomal Clint, CYP2C19 (rCYP2C19): 1.367 µL/min/mg Protein; rCYP Clint, CYP2C19 (rCYP2C19): 0.072 µL/min/pmol |
